One assay addresses D(2) dopamine receptor (Homo sapiens, UniProt P14416). Nature of the assay: Antagonist activity at dopamine D2 receptor. The format is functional.
In assay [1] the target is T1, Muscarinic acetylcholine receptor M1 (Rattus norvegicus) (UniProt P08482).
T1 sequence (whole entry): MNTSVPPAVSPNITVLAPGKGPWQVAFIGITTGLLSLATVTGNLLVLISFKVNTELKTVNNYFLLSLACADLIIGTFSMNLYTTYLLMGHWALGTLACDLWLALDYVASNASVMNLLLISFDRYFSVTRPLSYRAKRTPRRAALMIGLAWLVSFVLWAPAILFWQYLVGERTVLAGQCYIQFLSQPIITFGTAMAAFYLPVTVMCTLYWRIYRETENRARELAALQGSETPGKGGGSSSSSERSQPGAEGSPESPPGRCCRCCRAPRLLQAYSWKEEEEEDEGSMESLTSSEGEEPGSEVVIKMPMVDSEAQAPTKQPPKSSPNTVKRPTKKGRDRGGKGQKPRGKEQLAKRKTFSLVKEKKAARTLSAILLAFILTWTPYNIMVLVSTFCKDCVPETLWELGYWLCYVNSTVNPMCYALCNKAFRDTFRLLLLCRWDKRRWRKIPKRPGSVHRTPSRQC
Nature of the assay: Agonist activity at rat muscarinic M1 receptor expressed in CHO cells relative to acetylcholine. The format is functional, cell-based.

Assay [2] deals with T2, Muscarinic acetylcholine receptor M4 (Rattus norvegicus, UniProt P08485).
T2 sequence (P08485 whole entry): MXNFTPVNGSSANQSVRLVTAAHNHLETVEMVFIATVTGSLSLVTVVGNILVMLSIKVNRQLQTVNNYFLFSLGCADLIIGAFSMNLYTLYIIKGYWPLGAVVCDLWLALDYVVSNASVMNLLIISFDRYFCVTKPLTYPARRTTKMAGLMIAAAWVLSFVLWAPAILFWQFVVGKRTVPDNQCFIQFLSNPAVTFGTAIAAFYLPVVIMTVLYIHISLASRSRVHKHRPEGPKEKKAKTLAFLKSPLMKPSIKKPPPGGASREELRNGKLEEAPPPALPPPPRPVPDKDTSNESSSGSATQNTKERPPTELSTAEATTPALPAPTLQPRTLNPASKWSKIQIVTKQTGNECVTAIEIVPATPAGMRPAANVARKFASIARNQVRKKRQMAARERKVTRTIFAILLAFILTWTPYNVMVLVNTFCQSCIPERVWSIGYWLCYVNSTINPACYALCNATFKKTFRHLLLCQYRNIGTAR
Nature of the assay: Agonist activity at rat muscarinic M4 receptor expressed in CHO cells. The format is functional, cell-based.

Assay [3] addresses T3, Muscarinic acetylcholine receptor M1 (Homo sapiens, UniProt P11229).
T3 sequence (P11229 whole entry): T1 sequence (whole entry) with V5A, S254T, S309P, K320R, G337A, V413I
Nature of the assay: Agonist activity at human recombinant muscarinic M1 receptor by HTS cell based assay. The format is functional.

Assay [4] has as its target T4, Muscarinic acetylcholine receptor M2 (Rattus norvegicus, UniProt P10980).
T4 sequence (P10980 whole entry): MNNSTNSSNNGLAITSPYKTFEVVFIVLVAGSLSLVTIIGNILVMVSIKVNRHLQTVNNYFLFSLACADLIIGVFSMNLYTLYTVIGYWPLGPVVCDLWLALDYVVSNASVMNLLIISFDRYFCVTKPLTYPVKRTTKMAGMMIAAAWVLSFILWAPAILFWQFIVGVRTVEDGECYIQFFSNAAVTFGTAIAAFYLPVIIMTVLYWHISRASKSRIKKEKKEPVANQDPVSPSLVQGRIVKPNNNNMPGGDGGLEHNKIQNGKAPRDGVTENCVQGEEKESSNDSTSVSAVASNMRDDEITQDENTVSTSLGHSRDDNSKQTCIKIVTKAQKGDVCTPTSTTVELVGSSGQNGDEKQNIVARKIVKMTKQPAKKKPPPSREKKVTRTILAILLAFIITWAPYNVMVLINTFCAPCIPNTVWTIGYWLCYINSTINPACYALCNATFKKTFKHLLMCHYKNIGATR
Nature of the assay: Agonist activity at rat recombinant muscarinic M2 receptor by HTS cell based assay. The format is functional.

Assay [5] has as its target T2, Muscarinic acetylcholine receptor M4. Nature of the assay: Agonist activity at rat recombinant muscarinic M4 receptor by HTS cell based assay. The format is functional.
Assay [6] has as its target Muscarinic acetylcholine receptor M3 (Homo sapiens, UniProt P20309). Nature of the assay: Agonist activity at human recombinant muscarinic M3 receptor by HTS cell based assay. The format is functional.
In assay [7] the target is T5, Muscarinic acetylcholine receptor M4 (Homo sapiens, UniProt P08173).
T5 sequence (P08173 whole entry): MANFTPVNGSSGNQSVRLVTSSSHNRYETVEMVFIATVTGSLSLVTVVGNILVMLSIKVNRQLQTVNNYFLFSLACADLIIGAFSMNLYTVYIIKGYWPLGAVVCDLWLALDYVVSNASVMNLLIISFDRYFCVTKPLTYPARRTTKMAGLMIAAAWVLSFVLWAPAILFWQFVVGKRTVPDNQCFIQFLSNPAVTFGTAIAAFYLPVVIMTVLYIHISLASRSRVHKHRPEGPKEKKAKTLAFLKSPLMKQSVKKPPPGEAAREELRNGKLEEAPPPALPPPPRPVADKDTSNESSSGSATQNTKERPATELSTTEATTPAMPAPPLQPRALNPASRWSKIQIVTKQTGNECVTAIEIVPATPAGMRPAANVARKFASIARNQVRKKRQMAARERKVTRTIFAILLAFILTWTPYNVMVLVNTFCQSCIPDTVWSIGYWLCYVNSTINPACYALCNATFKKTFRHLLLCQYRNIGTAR
Nature of the assay: Agonist activity at human recombinant muscarinic M4 receptor by HTS cell based assay. The format is functional.

Results on 2 molecules are retold here after ChEMBL document CHEMBL1914417 (Bioorg Med Chem Lett, 2011).

Residue numbers refer to the chain shown, from its start. Bounds are passed on as bounds.

Chain of Muscarinic acetylcholine receptor M3 (P20309 whole entry): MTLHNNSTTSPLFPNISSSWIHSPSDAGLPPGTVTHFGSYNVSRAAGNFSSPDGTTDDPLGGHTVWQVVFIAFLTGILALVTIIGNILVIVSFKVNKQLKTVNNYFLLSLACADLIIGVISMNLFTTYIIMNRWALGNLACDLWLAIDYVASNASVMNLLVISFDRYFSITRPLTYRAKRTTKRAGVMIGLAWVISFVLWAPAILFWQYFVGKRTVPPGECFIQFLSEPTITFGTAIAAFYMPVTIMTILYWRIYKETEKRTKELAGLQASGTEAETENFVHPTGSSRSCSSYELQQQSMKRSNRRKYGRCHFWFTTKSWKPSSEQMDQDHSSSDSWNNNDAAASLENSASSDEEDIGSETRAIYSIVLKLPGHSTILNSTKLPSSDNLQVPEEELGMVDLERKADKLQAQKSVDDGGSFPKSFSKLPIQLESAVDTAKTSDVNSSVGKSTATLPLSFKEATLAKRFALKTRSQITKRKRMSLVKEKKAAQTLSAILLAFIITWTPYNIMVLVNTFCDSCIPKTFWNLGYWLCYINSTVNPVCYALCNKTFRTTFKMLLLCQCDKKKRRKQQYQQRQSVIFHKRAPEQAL
Chain of D(2) dopamine receptor (P14416 whole entry): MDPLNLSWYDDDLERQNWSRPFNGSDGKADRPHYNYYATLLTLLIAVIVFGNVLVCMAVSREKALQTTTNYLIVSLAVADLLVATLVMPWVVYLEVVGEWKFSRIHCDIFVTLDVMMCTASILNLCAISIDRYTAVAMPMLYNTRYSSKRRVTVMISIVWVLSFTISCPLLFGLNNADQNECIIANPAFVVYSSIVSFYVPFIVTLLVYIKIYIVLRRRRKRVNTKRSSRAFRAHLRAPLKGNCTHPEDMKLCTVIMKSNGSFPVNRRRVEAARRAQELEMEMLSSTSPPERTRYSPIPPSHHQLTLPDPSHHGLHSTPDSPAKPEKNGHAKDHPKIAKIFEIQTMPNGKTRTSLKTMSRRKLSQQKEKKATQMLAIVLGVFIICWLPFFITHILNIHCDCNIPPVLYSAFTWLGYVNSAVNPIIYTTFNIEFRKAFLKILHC

Regarding `CCOC(=O)N1CCC(N2CCC[C@@H](NC(=O)c3ccccc3C)C2)CC1`, on D(2) dopamine receptor, the IC50 is more than 30 µM. The same molecule came in with an Emax in assay [1] of 96%. Further, the concentration giving a half-maximal response (EC50) in assay [2] is more than 30 µM; in assay [3], 1.3 µM; in assay [4] it was more than 30 µM; in assay [5], more than 30 µM; in assay [6], more than 30 µM; in assay [7], more than 30 µM.
The molecule `CCOC(=O)N1CCC(NCCNC(=O)c2ccccc2C)CC1` showed an IC50 at D(2) dopamine receptor of 4.5 µM. Moreover, the Emax in assay [1] was found to be 81%. Further, the half-maximal effective concentration (EC50) in assay [2] was more than 30 µM; in assay [3], 2.3 µM; in assay [4] it was more than 30 µM; in assay [5] it was more than 30 µM; in assay [6] it was more than 30 µM; in assay [7], more than 30 µM.

In general, IC50 refers to the concentration that gives 50% inhibition. A lower IC50 goes with inhibition by little substance. For orientation: Emax means the greatest response seen or fitted, relative to the assay's reference. Broadly, the EC50 is the concentration at which the effect is half-maximal.
